Experimental findings from patent US9089139B2, “Agri-horticultural pest control compositions comprising 4-(3-butynyl)aminopyrimidine derivatives” (SDS Biotech K. K., priority 2011, dated 2015) are described below.

In general, melting point refers to the temperature of the solid-liquid transition.

In the first data set the test system is Sphaerotheca fuliginea. The data set can be described thus: Test 1: control effect against powdery mildew on cucumber (control index). The class given is in vivo, Sphaerotheca fuliginea on cucumber (variety: SAGAMI HANJIRO). The note with it: Podosphaera fuliginea, 336 h, read-out: Control index. An excerpt:
The expected efficacies of the combinations of the individual active compounds can be determined using Colby's formula, which is described below [Colby, S. R. “Calculating synergistic and antagonistic responses of herbicide combinations,” Weeds 15, 20-22 (1967)]: Colby's formula: E=A+B−(A×B/100) E is the predicted efficacy (control index) with reference to the untreated control when using the mixture of the active compound X at the concentration x and the active compound Y at the concentration y; A is the efficacy (control index) with respect to the untreated control when using the active compound X at the concentration x; B is the efficacy (control index) with respect to the untreated control when using the active compound […] at the concentration y.
Potted young seedlings of cucumber (variety: SAGAMI HANJIRO; in two-leaf stage) were sprayed with invention compounds formulated in accordance with Preparations and the existing antimicrobial active compounds listed in Table 3 (all compounds are identified by associated letters of the alphabet) after they were diluted with water to predetermined concentrations so that they would serve as active compounds; a spray gun was used to provide a spray rate of 15 ml per pot. After air-drying, the seedlings were inoculated with conida of Sphaerotheca fuliginea by spraying a suspension of the conida. Thereafter, the seedlings were cultivated for 14 days in a greenhouse and the percentage of diseased area was investigated for each leaf; based on the result of this investigation, the control index was calculated using the following formula: Control index={(percentage of diseased area on the untreated control−percentage of diseased area on treated sample)/percentage of diseased area on the untreated control}×100
In the case of `Cc1ccc2nc3sc(=O)sc3nc2c1` [Nb: Chinomethionate, chinomethionat], the pest or weed control at 10 ppm is 38%.

The data set is the same for the next values; noted with them: Podosphaera fuliginea, 336 h; individual active compound, test concentration 1 ppm.
On to `CC(C)CC(C)c1sccc1NC(=O)c1cn(C)nc1C(F)(F)F` (stereo not drawn) [Da: Penthiopyrad, penthiopyrad], for which the pest or weed control at 1 ppm worked out at 51%.

As to `CCC(Nc1ncnc(C)c1Cl)c1ccc(OC(F)F)cc1` (stereo not drawn) [Fa: Diflumetorim, diflumetorim], the pest or weed control at 1 ppm is 42%.

With `Fc1ccc(Oc2ccnc3cc(Cl)cc(Cl)c23)cc1` [Ia: Quinoxyfen, quinoxyfen], the pest or weed control at 1 ppm worked out at 39%.

As to `O=C(Cc1ccccc1)N/C(=N\OCC1CC1)c1c(C(F)(F)F)ccc(F)c1F` [Nc: Cyflufenamid, cyflufenamid], the pest or weed control at 1 ppm worked out at 49%.

The same data set, now with this note: Podosphaera fuliginea, 336 h; individual active compound, test concentration 2 ppm.
For the compound `COC(=O)NC(=S)Nc1ccccc1NC(=S)NC(=O)OC` [Ca: Thiophanate-methyl, thiophanate-methyl], the pest or weed control at 2 ppm stood at 40%.

Still in this data set, the particulars now being: Podosphaera fuliginea, 336 h; individual active compound, test concentration 10 ppm; read-out: Control index.
On to `CC1COC(Cn2cncn2)(c2ccc(Oc3ccc(Cl)cc3)cc2Cl)O1` (stereo not drawn) [Ha: Difenoconazole, difenoconazole], for which the pest or weed control at 10 ppm amounted to 27%.

With `CC(C)(C)C(O)(CCc1ccc(Cl)cc1)Cn1cncn1` (stereo not drawn) [Hb: Tebuconazole, tebuconazole], the pest or weed control at 10 ppm was found to be 42%.

Turning to `CCCOC/C(=N\c1ccc(Cl)cc1C(F)(F)F)n1ccnc1` [Hd: Triflumizole, triflumizole], the pest or weed control at 10 ppm turned out to be 39%.

Still in this data set, the particulars now being: Podosphaera fuliginea, 336 h; individual active compound, test concentration 100 ppm.
On to `CON=C(C(=O)OC)c1ccccc1CON=C(C)c1cccc(C(F)(F)F)c1` [Ec: Trifloxystrobin, trifloxystrobin], for which the pest or weed control at 100 ppm was 24%.

Turning to `COC(=O)N(OC)c1ccccc1COc1ccn(-c2ccc(Cl)cc2)n1` [Ed: Pyraclostrobin, pyraclostrobin], the pest or weed control at 100 ppm was 22%.

As for `CC(C)(C)C(=O)C(Oc1ccc(Cl)cc1)n1cncn1` (stereo not drawn) [Hc: Triadimefon, triadimefon], the pest or weed control at 100 ppm is 21%.

Take `CC(Cc1ccc(C(C)(C)C)cc1)CN1C[C@@H](C)O[C@@H](C)C1` (stereo partly drawn) [He: Fenpropimorph, fenpropimorph]: the pest or weed control at 100 ppm was 12%.

Staying with this data set, now noted: individual active compound, test concentration 1 ppm.
As to `COc1ccccc1N1CCS/C1=C(/C#N)Sc1cc(C(F)(F)F)ccc1F` [Nd: Flutianil, flutianil], the Control index came to 42.

The data set is the same for the next values; noted with them: individual active compound, test concentration 2 ppm.
In the case of `CCCCCCCCCCCCc1ccc(S(=O)(=O)O)cc1.CCCCCCCCCCCCc1ccc(S(=O)(=O)O)cc1.CCCCCCCCCCCCc1ccc(S(=O)(=O)O)cc1.NC(N)=NCCCCCCCCNCCCCCCCCN=C(N)N` [Ab: Iminoctadine albesilate, iminoctadine albesilate], the Control index is given as 41.

The same data set, now with this note: individual active compound, test concentration 10 ppm.
For the compound `CSC(=O)c1cccc2nnsc12` [Ma: Acibenzolar-S-methyl, acibenzolar-5-methyl], the Control index is 38.

Test system in the next data set: not given
Test: not given
Conditions: not given
Compound `CCOc1ccccc1C#CCCNc1ncnc2ccccc12` [compound 118] gave a melting point of 119 to 120 °C.

`CS(=O)(=O)c1ccc(C#CCCNc2ncnc3ccccc23)cc1` [compound 120] returned a melting point of 164 to 165 °C.

As for `CCOC(=O)c1ccc(C#CCCNc2ncnc3ccccc23)cc1` [compound 129], the melting point was 137 to 138 °C.

`OCc1cccc(C#CCCNc2ncnc3ccccc23)c1` [compound 131] had a melting point of 113 to 115 °C.

For `OCc1ccc(C#CCCNc2ncnc3ccccc23)cc1` [compound 132], the melting point lay in the range of 69 to 71 °C.

In the case of `OC(c1ccccc1C#CCCNc1ncnc2ccccc12)C(F)(F)F` (stereo not drawn) [compound 138], the melting point fell in the range of 183 to 187 °C.

`COCc1cc(F)c(F)cc1C#CCCNc1ncnc2ccccc12` [compound 146] yielded a melting point of 121 to 125 °C.

Compound `C(#Cc1ccc(OC2CCCCO2)cc1)CCNc1ncnc2ccccc12` (stereo not drawn) [compound 156] showed a melting point of 163 to 165 °C.

In turn, `Fc1cc(Cl)ccc1C#CCCNc1ncnc2ccccc12` [compound 164] returned a melting point of 198 to 199 °C.

Take `N#Cc1c(F)cccc1C#CCCNc1ncnc2ccccc12` [compound 165]: the melting point was in the range of 163 to 164 °C.

`Fc1ccc(C#CCCNc2ncnc3ccccc23)cc1F` [compound 166] registered a melting point of 161 to 162 °C.

Turning to `Clc1cccc(C#CCCNc2ncnc3ccccc23)c1Cl` [compound 171], the melting point was 175 to 176 °C.

`Clc1ccc(C#CCCNc2ncnc3ccccc23)c(Cl)c1` [compound 172] returned a melting point of 182 to 183 °C.

In turn, `Clc1ccc(Cl)c(C#CCCNc2ncnc3ccccc23)c1` [compound 173] registered a melting point of 176 to 177 °C.

Take `Clc1cccc(Cl)c1C#CCCNc1ncnc2ccccc12` [compound 174]: the melting point fell in the range of 153 to 155 °C.

Compound `Clc1ccc(C#CCCNc2ncnc3ccccc23)cc1Cl` [compound 175] returned a melting point of 147 to 148 °C.

In the case of `FC(F)(F)c1ccc(Cl)c(C#CCCNc2ncnc3ccccc23)c1` [compound 176], the melting point lay in the range of 144 to 145 °C.

Compound `COc1ccc(Cl)cc1C#CCCNc1ncnc2ccccc12` [compound 179] returned a melting point of 147 to 149 °C.

For `C(#Cc1ccc2ccccc2c1)CCNc1ncnc2ccccc12` [compound 183], the melting point is 159 to 160 °C.

`Fc1cncc(C#CCCNc2ncnc3ccccc23)c1` [compound 193]: the melting point was in the range of 145 to 150 °C.

On to `Clc1ncccc1C#CCCNc1ncnc2ccccc12` [compound 195], for which the melting point fell in the range of 168 to 170 °C.

In the case of `FC(F)(F)c1ccc(C#CCCNc2ncnc3ccccc23)cn1` [compound 198], the melting point lay within 134 to 139 °C.

On to `OCc1cnccc1C#CCCNc1ncnc2ccccc12` [compound 201], for which the melting point was 182 to 186 °C.

`OCc1ccc(C#CCCNc2ncnc3ccccc23)cn1` [compound 202] showed a melting point of 183 to 185 °C.

`OCc1cc(C#CCCNc2ncnc3ccccc23)co1` [compound 209] yielded a melting point of 135 to 147 °C.

For the compound `CCOC(=O)c1cnc(C#CCCNc2ncnc3ccccc23)s1` [compound 213], the melting point was in the range of 113 to 114 °C.

As for `CCOC(=O)c1sc(C#CCCNc2ncnc3ccccc23)nc1C` [compound 214], the melting point lay in the range of 139 to 140 °C.

Regarding `COc1cccc(Oc2nc(C#CCCNc3ncnc4ccccc34)cs2)c1` [compound 216], the melting point was 77 to 79 °C.

With `COc1ccc(Oc2nc(C#CCCNc3ncnc4ccccc34)cs2)cc1` [compound 217], the melting point lay within 150 to 152 °C.

Consider `FC(F)(F)c1ccccc1Oc1nc(C#CCCNc2ncnc3ccccc23)cs1` [compound 218], for which the melting point lay in the range of 159 to 161 °C.

Turning to `FC(F)(F)c1cccc(Oc2nc(C#CCCNc3ncnc4ccccc34)cs2)c1` [compound 219], the melting point lay in the range of 106 to 108 °C.

The compound `FC(F)(F)c1ccc(Oc2nc(C#CCCNc3ncnc4ccccc34)cs2)cc1` [compound 220] yielded a melting point of 137 to 139 °C.

The compound `N#Cc1cccc(Oc2nc(C#CCCNc3ncnc4ccccc34)cs2)c1` [compound 222] showed a melting point of 137 to 139 °C.

As for `N#Cc1ccc(Oc2nc(C#CCCNc3ncnc4ccccc34)cs2)cc1` [compound 223], the melting point is 55 to 57 °C.

`Fc1cccc(Oc2nc(C#CCCNc3ncnc4ccccc34)cs2)c1` [compound 225] displayed a melting point of 134 to 136 °C.

With `CC(CC#Cc1cscn1)Nc1ncnc2ccccc12` (stereo not drawn) [compound 291], the melting point lay within 142 to 145 °C.

`FC(F)(F)c1ccccc1C#CCC(Nc1ncnc2ccccc12)c1ccccc1` (stereo not drawn) [compound 302] had a melting point of 150 to 152 °C.

Consider `FC(F)(F)c1ccccc1C#CCCNc1ncnc2cc(Cl)ccc12` [compound 308], for which the melting point lay within 153 to 154 °C.

Take `COCc1ccccc1C#CCCNc1ncnc2ccc(I)cc12` [compound 322]: the melting point is 121 to 123 °C.

Compound `COCc1ccccc1C#CCCNc1ncnc2c(Cl)cc(Cl)cc12` [compound 338] displayed a melting point of 161 to 162 °C.

For `Clc1ncnc(NCCC#Cc2ccccc2)c1Cl` [compound 357], the melting point lay in the range of 122 to 123 °C.

Take `Clc1cc(NCCC#Cc2ccccc2)ncn1` [compound 358]: the melting point is 118 to 120 °C.

`Clc1ncnc(NCCC#Cc2ccccc2)c1Cc1ccccc1` [compound 372] returned a melting point of 157 to 158 °C.

As to `C(#Cc1ccccc1)CCNc1ncnc2[nH]cnc12` [compound 378], the melting point lay within 207 to 208 °C.
